A short description of data set [1]: Insolubility of the deposit in water in the Petri dish (Example 3). The note with it: general statement in the description.
For data set [2] the following is noted: dispersion contacted on a film of APTES.

As for `CCO[Si](CCCN)(OCC)OCC` [APTES, γ-aminopropyl triethoxysilane], the “water solubility of the material resulting from condensation” value in data set [1] is on record as “high water solubility”.

As to Zinc Pyrithione, the “flocculation of the dispersion” value in data set [2] is “almost immediate flocculation”.

For the origin of these results see US20130034509A1, “COSMETIC TREATMENT METHOD INVOLVING A COMPOUND CAPABLE OF CONDENSING IN SITU” (L'OREAL, priority 2009, published 2013).
